The values below are quoted from earlier work in EP1783518B1, “Functionalized dyes and use thereof in ophthalmic lens material” (Ophtec B.V., priority 2005, dated 2007).

Converted amounts (≈) assume the structure as drawn.

As to `Cc1cc(N=Nc2ccc(N=Nc3ccccc3)cc2)ccc1O` [Disperse Yellow 7, 4-[[p-(phenylazo)phenyl]azo]-o-cresol], where the note is “ethylene glycol monomethyl ether (EGME)”, the “solubility in EGME” value was 80 mg/mL (≈ 253 mM). Consider `O=C(O)c1cc(N=Nc2ccc(N=Nc3ccc(S(=O)(=O)[O-])cc3)cc2)ccc1[O-].[Na+].[Na+]` [Mordant Orange 6], for which the solubility in water is 40 mg/mL.

For `Cc1cc(N=Nc2ccc(N=Nc3ccc(S(=O)(=O)O)cc3)cc2)cc(C(=O)O)c1O.[Na+]` [Mordant Orange 10], the solubility in water is 40 mg/mL.
